Test results: PubChem BioAssay (NCI)
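How tested: cells in 96-well plates exposed to compound for 48 hours at five concentrations. The concentration for 50% growth inhibition is given as GI50. The concentration for full growth arrest is given as TGI.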

Experiments:
Assay in all cases: DTP human tumour cell line panel, 48 h; in the data active means GI50 below about 0.43 µM; inactive means the rest
SK-MEL-5 melanoma = test system: SK-MEL-5 melanoma
OVCAR-3 ovarian = test system: OVCAR-3 ovarian
SK-MEL-28 melanoma = test system: SK-MEL-28 melanoma
HL-60(TB) leukemia = test system: HL-60(TB) leukemia
SF-268 CNS = test system: SF-268 CNS
EKVX NSCLC = test system: EKVX NSCLC
UO-31 renal = test system: UO-31 renal
NCI-H522 lung = test system: NCI-H522 lung
PC-3 prostate = test system: PC-3 prostate
T-47D breast = test system: T-47D breast
K-562 leukemia = test system: K-562 leukemia
OVCAR-5 ovarian = test system: OVCAR-5 ovarian
UACC-257 melanoma = test system: UACC-257 melanoma
MDA-MB-435 = test system: MDA-MB-435
M14 melanoma = test system: M14 melanoma
HT29 colon = test system: HT29 colon
MALME-3M melanoma = test system: MALME-3M melanoma
HCT-15 colon = test system: HCT-15 colon
UACC-62 melanoma = test system: UACC-62 melanoma
NCI/ADR-RES ovarian = test system: NCI/ADR-RES ovarian
BT-549 breast = test system: BT-549 breast
COLO 205 colon = test system: COLO 205 colon
IGROV1 ovarian = test system: IGROV1 ovarian
A549 NSCLC = test system: A549 NSCLC
ACHN renal = test system: ACHN renal
HOP-62 NSCLC = test system: HOP-62 NSCLC
HOP-92 NSCLC = test system: HOP-92 NSCLC
SF-539 CNS = test system: SF-539 CNS
MDA-MB-231 breast = test system: MDA-MB-231 breast
SK-OV-3 ovarian = test system: SK-OV-3 ovarian
NCI-H23 lung = test system: NCI-H23 lung
RPMI-8226 leukemia = test system: RPMI-8226 leukemia
SK-MEL-2 melanoma = test system: SK-MEL-2 melanoma
HS 578T breast = test system: HS 578T breast
SF-295 CNS = test system: SF-295 CNS
NCI-H460 lung = test system: NCI-H460 lung
CCRF-CEM leukemia = test system: CCRF-CEM leukemia
CAKI-1 renal = test system: CAKI-1 renal
OVCAR-4 ovarian = test system: OVCAR-4 ovarian
DU-145 prostate = test system: DU-145 prostate
SW-620 colon = test system: SW-620 colon
KM12 colon = test system: KM12 colon
RXF 393 renal = test system: RXF 393 renal
NCI-H226 lung = test system: NCI-H226 lung
SNB-75 CNS = test system: SNB-75 CNS
MOLT-4 leukemia = test system: MOLT-4 leukemia
786-0 renal = test system: 786-0 renal
OVCAR-8 ovarian = test system: OVCAR-8 ovarian
SNB-19 CNS = test system: SNB-19 CNS
MCF7 breast = test system: MCF7 breast
HCT-116 colon = test system: HCT-116 colon
HCC-2998 colon = test system: HCC-2998 colon
SN12C renal = test system: SN12C renal
TK-10 renal = test system: TK-10 renal
U251 CNS = test system: U251 CNS

N=C(N)c1ccc(-c2ccc(-c3ccc(F)cc3)s2)nc1
3.68 µM: TGI (NCI-H460 lung)
active: GI50 (K-562 leukemia) 0.374 µM
5.52 µM: TGI (HT29 colon)
3.67 µM: TGI (OVCAR-4 ovarian)
6.98 µM: TGI (SF-268 CNS)
8.89 µM: TGI (HS 578T breast)
3.3 µM: TGI (OVCAR-5 ovarian)
inactive: GI50 (SK-MEL-5 melanoma) 1.8 µM | GI50 (OVCAR-3 ovarian) 1.77 µM | GI50 (SK-MEL-28 melanoma) 2.13 µM | GI50 (HL-60(TB) leukemia) 1.46 µM | GI50 (SF-268 CNS) 2.51 µM | GI50 (EKVX NSCLC) 4.26 µM | GI50 (UO-31 renal) 1.53 µM | GI50 (NCI-H522 lung) 2.05 µM | GI50 (PC-3 prostate) 2.23 µM | GI50 (T-47D breast) 2.18 µM | GI50 (OVCAR-5 ovarian) 1.73 µM | GI50 (UACC-257 melanoma) 2.2 µM | GI50 (MDA-MB-435) 1.71 µM | GI50 (M14 melanoma) 1.79 µM | GI50 (HT29 colon) 2.13 µM | GI50 (MALME-3M melanoma) 1.71 µM | GI50 (HCT-15 colon) 1.84 µM | GI50 (UACC-62 melanoma) 1.94 µM | GI50 (NCI/ADR-RES ovarian) 2.72 µM | GI50 (BT-549 breast) 5.11 µM | GI50 (COLO 205 colon) 2.12 µM | GI50 (IGROV1 ovarian) 1.78 µM | GI50 (A549 NSCLC) 2.11 µM | GI50 (ACHN renal) 1.81 µM | GI50 (HOP-62 NSCLC) 2.39 µM | GI50 (HOP-92 NSCLC) 2.02 µM | GI50 (SF-539 CNS) 1.75 µM | GI50 (MDA-MB-231 breast) 1.73 µM | GI50 (SK-OV-3 ovarian) 11 µM | GI50 (NCI-H23 lung) 2.87 µM | GI50 (RPMI-8226 leukemia) 2.68 µM | GI50 (SK-MEL-2 melanoma) 3.23 µM | GI50 (HS 578T breast) 2.72 µM | GI50 (SF-295 CNS) 1.85 µM | GI50 (NCI-H460 lung) 1.88 µM | GI50 (CCRF-CEM leukemia) 2.46 µM | GI50 (CAKI-1 renal) 1.67 µM | GI50 (OVCAR-4 ovarian) 1.87 µM | GI50 (DU-145 prostate) 1.83 µM | GI50 (SW-620 colon) 1.84 µM | GI50 (KM12 colon) 1.92 µM | GI50 (RXF 393 renal) 3.84 µM | GI50 (NCI-H226 lung) 10.3 µM | GI50 (SNB-75 CNS) 1.55 µM
3.17 µM: TGI (MDA-MB-435)
9.95 µM: TGI (SK-MEL-2 melanoma)
4.76 µM: TGI (COLO 205 colon)
1.75 µM: TGI (K-562 leukemia)
6.04 µM: TGI (PC-3 prostate)
4.24 µM: TGI (UACC-62 melanoma)
6.83 µM: TGI (RPMI-8226 leukemia)
22.9 µM: TGI (EKVX NSCLC)
8.58 µM: TGI (HOP-92 NSCLC)
3.69 µM: TGI (M14 melanoma)
3.26 µM: TGI (OVCAR-3 ovarian) | TGI (MDA-MB-231 breast)
3.65 µM: TGI (SW-620 colon)
28.9 µM: TGI (SK-OV-3 ovarian)
16.9 µM: TGI (RXF 393 renal)
2.87 µM: TGI (UO-31 renal)
32.9 µM: TGI (NCI-H226 lung)
3.38 µM: TGI (HL-60(TB) leukemia)
3.61 µM: TGI (IGROV1 ovarian)
6.06 µM: TGI (CCRF-CEM leukemia)
6.86 µM: TGI (NCI/ADR-RES ovarian)
4.63 µM: TGI (NCI-H522 lung)
3.57 µM: TGI (KM12 colon)
3.2 µM: TGI (ACHN renal) | TGI (SF-539 CNS)
30.1 µM: TGI (BT-549 breast)
3.06 µM: TGI (CAKI-1 renal)
4.05 µM: TGI (SNB-75 CNS)
8.99 µM: TGI (NCI-H23 lung)
3.24 µM: TGI (SK-MEL-5 melanoma)
3.56 µM: TGI (HCT-15 colon)
6.68 µM: TGI (T-47D breast)
3.27 µM: TGI (DU-145 prostate)
5.12 µM: TGI (UACC-257 melanoma)
3.21 µM: TGI (MALME-3M melanoma)
3.63 µM: TGI (SF-295 CNS)
4.45 µM: TGI (SK-MEL-28 melanoma)
6.21 µM: TGI (HOP-62 NSCLC)
4.78 µM: TGI (A549 NSCLC)

c1ccc(-c2cn3nc(N4CCOCC4)sc3n2)cc1
> 100 µM: TGI (SK-MEL-5 melanoma) | TGI (MOLT-4 leukemia) | TGI (OVCAR-3 ovarian) | TGI (SK-MEL-28 melanoma) | TGI (HL-60(TB) leukemia) | TGI (SF-268 CNS) | TGI (EKVX NSCLC) | TGI (UO-31 renal) | TGI (NCI-H522 lung) | TGI (PC-3 prostate) | TGI (786-0 renal) | TGI (T-47D breast) | TGI (K-562 leukemia) | TGI (OVCAR-5 ovarian) | TGI (UACC-257 melanoma) | TGI (MDA-MB-435) | TGI (M14 melanoma) | TGI (OVCAR-8 ovarian) | TGI (HT29 colon) | TGI (MALME-3M melanoma) | TGI (HCT-15 colon) | TGI (UACC-62 melanoma) | TGI (NCI/ADR-RES ovarian) | TGI (BT-549 breast) | TGI (SNB-19 CNS) | TGI (COLO 205 colon) | TGI (IGROV1 ovarian) | TGI (A549 NSCLC) | TGI (ACHN renal) | TGI (HOP-62 NSCLC) | TGI (MCF7 breast) | TGI (HCT-116 colon) | TGI (MDA-MB-231 breast) | TGI (SK-OV-3 ovarian) | TGI (NCI-H23 lung) | TGI (RPMI-8226 leukemia) | TGI (HCC-2998 colon) | TGI (SK-MEL-2 melanoma) | TGI (HS 578T breast) | TGI (SF-295 CNS) | TGI (NCI-H460 lung) | TGI (CCRF-CEM leukemia) | TGI (CAKI-1 renal) | TGI (OVCAR-4 ovarian) | TGI (SN12C renal) | TGI (DU-145 prostate) | TGI (TK-10 renal) | TGI (SW-620 colon) | TGI (KM12 colon) | TGI (RXF 393 renal) | TGI (U251 CNS) | TGI (NCI-H226 lung) | TGI (SNB-75 CNS)
